According to the NIST ThermoML archive (doi:10.1021/je700260f):
± gives the expanded uncertainty stated by the source.

Settings: 333.16 K, Liquid, Vibrating tube method

FC(C(F)(F)F)C(F)(F)F [1,1,1,2,3,3,3-heptafluoropropane]
Settings | mass density [kg/m3]
17241 kPa | 1375.9 ± 1.6
17263 kPa | 1376.1 ± 1.6
17300 kPa | 1376.3 ± 1.6
17322 kPa | 1376.4 ± 1.6
17351 kPa | 1376.5 ± 1.6
17370 kPa | 1376.8 ± 1.6
17482 kPa | 1377.4 ± 1.6
17509 kPa | 1377.4 ± 1.6
17532 kPa | 1377.7 ± 1.6
17563 kPa | 1377.9 ± 1.6
17589 kPa | 1378 ± 1.6
17619 kPa | 1378.1 ± 1.6
17654 kPa | 1378.4 ± 1.6
17680 kPa | 1378.6 ± 1.6
17707 kPa | 1378.7 ± 1.6
17741 kPa | 1378.9 ± 1.6
17766 kPa | 1379.1 ± 1.6
17788 kPa | 1379.2 ± 1.6
17814 kPa | 1379.3 ± 1.6
17848 kPa | 1379.5 ± 1.6
17875 kPa | 1379.6 ± 1.6
18144 kPa | 1381.2 ± 1.6
18172 kPa | 1381.4 ± 1.6
18199 kPa | 1381.6 ± 1.6
18229 kPa | 1381.8 ± 1.6
18263 kPa | 1382 ± 1.6
18289 kPa | 1382 ± 1.6
18321 kPa | 1382.2 ± 1.6
18352 kPa | 1382.4 ± 1.6
18378 kPa | 1382.7 ± 1.6
18409 kPa | 1382.9 ± 1.6
18440 kPa | 1382.9 ± 1.6
18582 kPa | 1383.6 ± 1.6
18605 kPa | 1383.8 ± 1.6
18633 kPa | 1384.2 ± 1.6
18653 kPa | 1384.2 ± 1.6
18684 kPa | 1384.3 ± 1.6
18715 kPa | 1384.6 ± 1.6
18741 kPa | 1384.6 ± 1.6
18777 kPa | 1384.9 ± 1.6
18809 kPa | 1385.1 ± 1.6
18836 kPa | 1385.3 ± 1.6
18859 kPa | 1385.4 ± 1.6
18889 kPa | 1385.6 ± 1.6
18924 kPa | 1385.8 ± 1.6
18951 kPa | 1385.8 ± 1.6
18974 kPa | 1385.9 ± 1.6
19009 kPa | 1386.3 ± 1.6
19047 kPa | 1386.4 ± 1.6
19071 kPa | 1386.6 ± 1.6
19105 kPa | 1386.7 ± 1.6
19128 kPa | 1386.7 ± 1.6
19166 kPa | 1387 ± 1.6
19192 kPa | 1387.1 ± 1.6
19220 kPa | 1387.4 ± 1.6
19248 kPa | 1387.5 ± 1.6
19286 kPa | 1387.9 ± 1.6
19310 kPa | 1387.8 ± 1.6
19346 kPa | 1388 ± 1.6
19381 kPa | 1388.3 ± 1.6
19409 kPa | 1388.4 ± 1.6
19445 kPa | 1388.6 ± 1.6
19468 kPa | 1388.8 ± 1.6
19716 kPa | 1390.1 ± 1.6
19745 kPa | 1390.3 ± 1.6
19776 kPa | 1390.5 ± 1.6
19803 kPa | 1390.5 ± 1.6
19831 kPa | 1390.7 ± 1.6
19870 kPa | 1391 ± 1.6
19894 kPa | 1391 ± 1.6
19927 kPa | 1391.2 ± 1.6
19959 kPa | 1391.4 ± 1.6
19987 kPa | 1391.6 ± 1.6
20022 kPa | 1391.8 ± 1.6
20050 kPa | 1391.9 ± 1.6
20077 kPa | 1392 ± 1.6
20115 kPa | 1392.3 ± 1.6
20146 kPa | 1392.4 ± 1.6
20174 kPa | 1392.5 ± 1.6
20207 kPa | 1392.8 ± 1.6
20238 kPa | 1392.9 ± 1.6
20266 kPa | 1393.1 ± 1.6
20294 kPa | 1393.3 ± 1.6
20328 kPa | 1393.5 ± 1.6
20352 kPa | 1393.5 ± 1.6
20393 kPa | 1393.9 ± 1.6
20421 kPa | 1393.8 ± 1.6
20453 kPa | 1394.1 ± 1.6
20487 kPa | 1394.3 ± 1.6
20512 kPa | 1394.4 ± 1.6
20545 kPa | 1394.6 ± 1.6
20579 kPa | 1394.8 ± 1.6
20612 kPa | 1395 ± 1.6
20640 kPa | 1395.1 ± 1.6
20661 kPa | 1395.4 ± 1.6
20682 kPa | 1395.2 ± 1.6
20713 kPa | 1395.4 ± 1.6
21425 kPa | 1399.3 ± 1.6
21458 kPa | 1399.4 ± 1.6
21479 kPa | 1399.5 ± 1.6
21507 kPa | 1399.6 ± 1.6
21537 kPa | 1399.9 ± 1.6
21562 kPa | 1399.9 ± 1.6
